Values of other authors, collected in patent US20230074252A1, “DOSAGES AND METHODS FOR TREATING PULMONARY ARTERIAL HYPERTENSION WITH RODATRISTAT” (Altavant Sciences GmbH, priority 2020, published 2023).

Experiments:
[1] = oral; cited from earlier work
[2] = human, in vivo; cited from earlier work
[3] = cited from earlier work; for Change in exposure on coadministration with clopidogrel: selexipag + clopidogrel (moderate inhibitor); for Increase in exposure (AUC) on coadministration with gemfibrozil: selexipag + gemfibrozil (strong CYP2C8 inhibitor); for Increase in exposure on coadministration with ritonavir: selexipag + ritonavir
CYP2C8 = biological target: T1, CYP2C8 (Homo sapiens, UniProt P10632); settings: literature; cited from earlier work
T1 sequence (P10632 1-490): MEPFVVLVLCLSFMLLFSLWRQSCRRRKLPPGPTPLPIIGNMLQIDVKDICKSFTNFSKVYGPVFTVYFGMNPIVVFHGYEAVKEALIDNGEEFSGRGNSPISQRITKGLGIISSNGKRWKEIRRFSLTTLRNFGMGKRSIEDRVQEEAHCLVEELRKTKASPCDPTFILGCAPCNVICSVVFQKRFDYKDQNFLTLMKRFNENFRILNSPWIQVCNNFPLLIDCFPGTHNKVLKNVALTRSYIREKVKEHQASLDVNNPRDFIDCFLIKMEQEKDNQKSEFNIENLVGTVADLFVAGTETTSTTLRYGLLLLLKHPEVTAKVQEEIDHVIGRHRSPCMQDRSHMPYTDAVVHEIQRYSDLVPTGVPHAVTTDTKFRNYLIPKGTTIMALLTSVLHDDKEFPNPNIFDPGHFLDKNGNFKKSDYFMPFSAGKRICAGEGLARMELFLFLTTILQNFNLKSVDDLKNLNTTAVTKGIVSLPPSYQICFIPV

prostacyclin receptor = prostacyclin receptor (Homo sapiens, UniProt P43119); settings: cited from earlier work
Chain of prostacyclin receptor (P43119 whole entry, species assumed): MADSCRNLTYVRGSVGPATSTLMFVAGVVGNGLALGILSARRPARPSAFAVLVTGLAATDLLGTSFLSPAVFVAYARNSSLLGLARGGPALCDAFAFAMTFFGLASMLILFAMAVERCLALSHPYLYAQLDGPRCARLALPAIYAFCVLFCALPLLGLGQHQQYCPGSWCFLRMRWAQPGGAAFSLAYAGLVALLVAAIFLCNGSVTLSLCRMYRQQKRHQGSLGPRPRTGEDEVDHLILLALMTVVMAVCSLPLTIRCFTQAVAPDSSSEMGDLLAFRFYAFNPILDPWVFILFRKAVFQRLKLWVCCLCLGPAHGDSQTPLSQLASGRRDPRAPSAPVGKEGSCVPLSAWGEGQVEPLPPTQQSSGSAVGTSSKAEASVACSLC

Row | Compound | Change in exposure on coadministration with clopidogrel [3] | Increase in exposure (AUC) on coadministration with gemfibrozil [3] [fold] | Increase in exposure on coadministration with ritonavir [3] [fold] | other results
1 | CCCCC[C@H](O)CC[C@@H]1[C@H]2Cc3cccc(OCC(=O)O)c3C[C@H]2C[C@H]1O.[Na+] [treprostinil, (1R,2R,3aS,9aS)-[[2,3,3a,4,9,9a-Hexahydro-2-hydroxy-1-[(3S)-3-hydroxyoctyl]-1Hbenz[f]inden-5-yl]oxy]acetic acid monosodium salt] | – | – | – | Bioavailability [1]: ~17%; Increase in AUC on coadministration with gemfibrozil [2]: ~2 fold; Increase in Cmax on coadministration with gemfibrozil [2]: ~2 fold
2 | CC(C)N(CCCCOCC(=O)NS(C)(=O)=O)c1cnc(-c2ccccc2)c(-c2ccccc2)n1 [selexipag] | did not impact | 2 | ~2 | –
3 | O=C1Nc2ccc(Cl)cc2[C@@](C#CC2CC2)(C(F)(F)F)O1 [efavirenz] | – | – | – | IC50 (CYP2C8): 4.8 µM
4 | CC(C)N(CCCCOCC(=O)O)c1cnc(-c2ccccc2)c(-c2ccccc2)n1 [ACT-333679] | 2.7 fold | 11 | < 2 | Potency relative to selexipag (prostacyclin receptor): approximately 37 fold
